Reference: patent US10166237B2, “Compounds and methods for inducing chondrogenesis” (The Scripps Research Institute, priority 2011, dated 2019)

Legend:
hMSCs = experiment: type II collagen expression in hMSC cultures (18 day assay); type: cell-based, human; details: Homo sapiens
Protocol: The chondrogenic differentiation event was initiated quickly even though a fully differentiated chondrocyte phenotype cannot be assessed prior to 14 days in culture. In an 18 day assay, compound treatment was only required for the first 48 hrs and followed by removal and replacement of the media (in the absence of stimuli, FIG. 2B). The promotion of chondrogenic differentiation was not altered or enhanced upon longer treatment with the stimuli (data not shown).
(§1) Primary hMSCs were plated (10,000/well) in 384-well plates and cultured for 18 days. The cells were fixed with 4% formalin, permeabilized with triton (0.5%), digested with 0.5 mg/ml collagenase II to unwind the collagen fibrils, and then immunostained with an antibody recognizing type II collagen. DAPI (2 μg/ml) was added to visualize the nuclei. The chondrogenic nodules stained positive for type II collagen but lacked expression of type X collagen and osteocalcin, markers for chondrocyte hypertrophy and osteoblasts, respectively (not shown). 10,000 hMSCs (passages 3-5) were plated in Greiner 384-well low-bottom plates on day 1. The cells were allowed to adhere and stimulated for 48 hrs (days 2-3) with the indicated stimuli in MSC growth media (Millipore). The media was then removed and replaced with serum-free DMEM for an additional 16 days. This media was replenished on days 10 and 15 of the assay. Primary bovine chondrocytes were isolated from the articular surfaces from mature knees. After one week of culture, 8,500 cells were trypsinized and plated in Greiner 384-well white clear-bottom plates in growth media. […] 20 μl of the supernatant was mixed with 20 μl of the Greiss reagent and quantitated at 540 nm as described by the Promega kit instructions. Bovine cartilage explants (cut in circular explants in a 96 well plate) were cultured in the presence of 20 ng/ml TNFα and 10 ng/ml oncostatin M to induce GAG release for 72 hours (FIG. 2D). PRO1 was added at the indicated concentrations during the entire 72 hrs. […] Parafin sections were hydrated, incubated in low pH Antigen unmasking solution (Vector) at 90 C for 10 minutes, permeabilized with 0.1% collagenase II (only for the sections stained with type II collagen) for 10 minutes, blocked with CAS block for 10 minutes and then incubated with the primary antibody (type II collagen, aggrecan or Timp1) antibody (Abcam) overnight at 4 C. The antigens were visualized through standard ABC detection methods and developed with DAB. Representative of 3 sections stained/treatment group (independent experiments).

[1] = test system: primary bovine chondrocytes; experiment: inhibition of cytokine-induced nitric oxide release (Greiss reaction); type: cell-based; details: Bos taurus, Chondrocyte; second value of the cell (after the slash); TNFα and oncostatin M, 48 hours; read-out: NO INHIBTION μM IC50
Source text: (§2) In the screen, hMSCs were used as a surrogate to future targeting of the resident MSCs with the cartilage joint. It was in that setting upon which we identified PRO1. In a joint injury, the primary cell type a therapeutic would have contact with is the chondrocyte. Although cartilage or chondrocyte-targeted screening has not lead to the development of a successful drug modifying osteoarthritis drug (DMOAD) to date, it is believed that a stem cell-based therapeutic would protect and even repair the existing chondrocytes. Therefore, protection of the articular chondrocytes and cartilage from a mature bovine knee was assessed. PRO1 and its analogues were incubated with primary bovine chondrocytes or cartilage explants cultures grown in the presence of TNFα and oncostatin M to mimic the cytokine-induced damage that can occur during OA. In the presence of the cytokine cocktail, in vitro cultured primary chondrocytes released 4-5 fold more nitric oxide (NO) than the untreated chondrocytes (50 μM vs 10 μM) as measured by the Greiss reaction. In cells treated with the cytokine cocktail and PRO1, the small molecule could effectively block the release of NO by up to 70% FIG. 2C). Similarly, in ex vivo treated cartilage explants, cytokine-induced release of glycosaminoglycans (GAG) was reduced by up to 60% by PRO1 (FIG. 2D). Finally, hMSC were grown in pellet culture for 21 days.
as §1

[2] = test system: human mesenchymal stem cells (hMSCs); experiment: chondrogenic nodule formation by hMSCs (high throughput screen); type: cell-based; details: Homo sapiens, Mesenchymal stem cells; first value of the cell (before the slash); read-out: CHONDROGENIC μM EC50
Outline: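 Primary hMSCs (10^4/well) in serum-free DMEM exposed to compounds at 5 μM for 4 days. Chondrogenic nodules stained with Nile red (binds collagens) and counted by high-content imaging with 488 laser excitation. In 96-well follow-up, 50,000 cells/well treated 4 days, formalin-fixed, stained with 1 μg/ml Rhodamine B.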

[3] = test system: bovine cartilage explants; experiment: cytokine-induced GAG release from cartilage explants ex vivo; type: cell-based; details: 1 μM (or less); compared with PRO1
Source text: as §2, with “In cells treated with the cytokine cocktail and PRO1, the small molecule could effectively block the release of NO by up to 70% FIG. 2C). Similarly, in ex vivo treated cartilage explants, cytokine-induced release of glycosaminoglycans (GAG) was reduced by up to 60% by PRO1 (FIG. 2D). Finally, hMSC were grown in pellet culture for 21 days.” left out
Primary hMSCs were plated (10,000/well) in 384-well plates and cultured for 18 days. […] 20 μl of the supernatant was mixed with 20 μl of the Greiss reagent and quantitated at 540 nm as described by the Promega kit instructions. […]

EC50 (hMSCs)	EC50 [2]	Molecule	IC50 [1]	chondro-protective activities [3]
0.37 µM	> 10 µM	C[C@@H](C(=O)Nc1ccc(Cl)cn1)N1Cc2ccccc2C1=O [SMA-1*]	0.04 µM	–
6.98 µM	0.0015 µM	CC(C)CNC(=O)c1ccccc1C(=O)Nc1ccc(-c2ccccc2)cc1 [AKT-iPr]	> 10 µM	–
> 10 µM	2.01 µM	CCNC(=O)c1ccccc1C(=O)O [AKT-NHEt]	> 10 µM	–
> 10 µM	0.014 µM	Cc1ccc(C(=O)Nc2ccc(C#N)cc2)cc1 [LK20b]	> 10 µM	–
> 10 µM	> 10 µM	O=C(O)c1cc(F)ccc1C(=O)Nc1ccc(-c2ccccc2)cc1 [AKT-F]	> 10 µM	–
> 10 µM	> 10 µM	Cc1ccc(NC(=O)c2ccccc2C(=O)O)cn1 [Compound L6]	> 10 µM	–
–	–	TGFβ3: "known inducers of chondrogenic differentiation (TGFβ3, BMP7 or BMP2)" (protein, UniProt P10600 301-412, looked up) Transforming growth factor …: ALDTNYCFRNLEENCCVRPLYIDFRQDLGWKWVHEPKGYYANFCSGPCPYLRSADTTHSTVLGLYNTLNPEASASPCCVPQDLEPLTILYYVGRTPKVEQLSNMVVKSCKCS	–	did not have the same degree of chondro-protective activities
